Experiments:
[1] = biological target: SDH (Homo sapiens, UniProt O14521+P21912+Q99643); settings: literature reference 21 (Miyadera et al. 2003); cited from earlier work
[2] = tested on: postnatal (P7) mouse heart following myocardial infarction; assay: Echocardiography after myocardial infarction in P7 juvenile mice; settings: for % EF (Ejection Fraction) / % FS (Fractional Shortening) / LV Mass (Left Ventricular Mass, Anatomical Weight) / LV Vol; d (Left Ventricular Volume; diastole) / LV Vol; s (Left Ventricular Volume; systole) / LVAWD (Left Ventricle Anterior Wall Thickness Diastole) / LVAWS (Left Ventricle Anterior Wall Thickness Systole) / LVIDD (Left Ventricle Internal Diameter Diastole) / LVIDS (Left Ventricle Internal Diameter Systole) / LVPWD (Left Ventricle Posterior Wall Thickness Diastole) / LVPWS (Left Ventricle Posterior Wall Thickness Systole): Atpenin A5 100 μg/kg daily, mean ± SE
Description: (§1) Neonatal mice at postnatal day 1 (P1) or day 7 (P7) were used for myocardial infarction (MI) surgery. Neonatal mice were subjected to MI surgeries as previously described. Briefly, neonates were anesthetized by hypothermia on ice. Lateral thoracotomy at the fourth intercostal space was performed by blunt dissection of the intercostal muscles after skin incision. A C-1 tapered needle attached to a 6-0 prolene suture (Ethicon Inc., Bridgewater, N.J.) was passed through the mid-ventricle below the left anterior descending coronary artery (LAD) and tied off to induce MI. The prolene suture was used to suture the ribs together and seal the chest wall incisions, and the skin was closed using adhesive glue (3M). The mice then were warmed on a heating pad until recovery. Sham-operated mice underwent the same procedure including hypothermic anesthesia, but not LAD ligation.
(§2) Neonatal mice were weighed and injected daily with either saline, 100 mg/kg dimethyl succinate (Sigma), 100 mg/kg dimethyl malonate (Sigma), or 100 μg/kg Atpenin A5 (Enzo Life Sciences). Dimethyl succinate and dimethyl malonate were dissolved in saline. Stock solution of Atpenin A5 at 0.1 mg/ml was initially prepared by dissolving in DMSO (Sigma) and then further diluted with saline before injection. Saline was used as a vehicle control for all experiments.
Transthoracic echocardiography was performed by using a Visual Sonics 770 ultrasonograph with a 25-MHz transducer (Visual Sonics, Toronto) as described previously^19. Mice were lightly anesthetized with 1% isoflurane and maintained on a heated platform. Two-dimensionally guided M-mode images from a parasternal long axis (PLAX) of the left ventricle (LV) were acquired at the tip of the papillary muscles. Wall thickness and chamber diameters were measured in both diastole and systole. Fractional shortening was calculated as (LVDd−LVDs)/LVDd×100, where LVDd is LV diameter in diastole and LVDs is LV diameter in systole. Ejection fraction was calculated as [(7.0/(2.4+LVDd)(LVDd)^3−(7.0/(2.4+LVDs)(LVDs)^3/(7.0/(2.4+LVDd)(LVDd)^3×100 and LV mass was calculated by using the formula [1.05×((Posterior Walldiastole+Anterior Walldiastole+LVDd)^3−(LVDd)^3)]. All parameters were measured over at least three consecutive cycles.
We injected dimethyl malonate (100 mg/kg, daily) in neonatal mice directly after birth for 2 weeks with an MI performed once the mice reached P7. We then analyzed the hearts following injury to determine whether malonate results in prolongation of the neonatal regenerative window (FIG. 10A).

[3] = tested on: cardiomyocytes; assay: Immunostaining (pH3, Aurora B), WGA and trichrome staining after MI in P7 mice; settings: vs controls
Excerpt: We then analyzed the hearts following injury to determine whether malonate results in prolongation of the neonatal regenerative window (FIG. 5A). To examine whether malonate stimulates cardiomyocyte proliferation, we performed MI in 7-day-old mice and analyzed their hearts at 7 days post-MI by immunostaining for markers of proliferation.
as §1, §2
Hearts were harvested and fixed in 4% paraformaldehyde (PFA) in PBS solution overnight at 4° C., processed for paraffin embedding, and sectioned in intervals. Masson's trichrome staining was performed according to the manufacture's protocol (Newcomer Supply, Middleton, WI). Scar size measurements were quantified from at least 3 sections of the heart from ligature to apex. ImageJ was used to quantify the fibrotic scar, and the average scar area for each heart was plotted.
We injected dimethyl malonate (100 mg/kg, daily) in neonatal mice directly after birth for 2 weeks with an MI performed once the mice reached P7.

[4] = MI at P7 (n = 8), echo 21 days post-MI (P7D21)
[5] = sham at P7 (SH, n = 6), echo at day 21 (P7D21)
[6] = MI at P7, Atpenin A5 100 μg/kg daily, 7 days post-MI
[7] = MI at P7, Atpenin A5 100 μg/kg daily, 21 days post-MI

SDH, sequence (P31040 43-664 partner): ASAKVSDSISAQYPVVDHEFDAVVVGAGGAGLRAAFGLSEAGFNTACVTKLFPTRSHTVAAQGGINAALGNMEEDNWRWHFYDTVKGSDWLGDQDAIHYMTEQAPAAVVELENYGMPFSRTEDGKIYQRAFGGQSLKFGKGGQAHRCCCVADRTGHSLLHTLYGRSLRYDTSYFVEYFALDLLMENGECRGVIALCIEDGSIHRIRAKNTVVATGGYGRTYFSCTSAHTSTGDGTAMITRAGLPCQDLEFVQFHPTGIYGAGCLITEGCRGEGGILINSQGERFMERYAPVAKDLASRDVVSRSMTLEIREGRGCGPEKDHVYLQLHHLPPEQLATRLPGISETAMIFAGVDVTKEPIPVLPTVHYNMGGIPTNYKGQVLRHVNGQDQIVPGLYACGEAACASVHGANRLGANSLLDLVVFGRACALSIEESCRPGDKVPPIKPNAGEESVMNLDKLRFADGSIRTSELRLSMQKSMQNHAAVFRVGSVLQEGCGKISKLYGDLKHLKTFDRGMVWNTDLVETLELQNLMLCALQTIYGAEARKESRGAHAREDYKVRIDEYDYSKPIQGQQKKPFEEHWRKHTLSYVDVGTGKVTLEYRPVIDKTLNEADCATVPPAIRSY
SDH, sequence (P21912 29-280): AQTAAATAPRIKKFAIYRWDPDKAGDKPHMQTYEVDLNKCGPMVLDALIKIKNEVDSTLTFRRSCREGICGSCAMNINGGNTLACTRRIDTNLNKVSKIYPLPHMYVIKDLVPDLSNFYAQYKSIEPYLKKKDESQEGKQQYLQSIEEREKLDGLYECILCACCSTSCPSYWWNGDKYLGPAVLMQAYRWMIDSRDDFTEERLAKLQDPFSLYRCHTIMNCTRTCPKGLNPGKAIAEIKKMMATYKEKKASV
SDH, sequence (Q99643 30-169): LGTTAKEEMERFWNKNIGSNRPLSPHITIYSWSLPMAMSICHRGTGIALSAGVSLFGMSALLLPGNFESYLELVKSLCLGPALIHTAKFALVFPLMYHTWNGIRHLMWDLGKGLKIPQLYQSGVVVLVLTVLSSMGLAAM
SDH, sequence (O14521 57-159): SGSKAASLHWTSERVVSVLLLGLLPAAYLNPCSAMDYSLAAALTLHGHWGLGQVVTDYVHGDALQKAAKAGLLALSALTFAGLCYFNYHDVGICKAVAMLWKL

## COc1[nH]c(=O)c(C(=O)[C@@H](C)C[C@H](C)[C@@H](Cl)CCl)c(O)c1OC [Atpenin A5]
[1]
  inhibition of SDH: potent inhibitor of SDH
[2]; [4]
  % EF (Ejection Fraction): 49.676 ± 2.072%
  % FS (Fractional Shortening): 24.642 ± 1.227%
  LV Mass (Left Ventricular Mass, Anatomical Weight): 54.203 ± 7.978 mg
  LV Vol; d (Left Ventricular Volume; diastole): 50.033 ± 6.416 µL
  LV Vol; s (Left Ventricular Volume; systole): 25.290 ± 3.427 µL
  LVAWD (Left Ventricle Anterior Wall Thickness Diastole): 0.525 ± 0.023 mm
  LVAWS (Left Ventricle Anterior Wall Thickness Systole): 0.644 ± 0.032 mm
  LVIDD (Left Ventricle Internal Diameter Diastole): 3.438 ± 0.167 mm
  LVIDS (Left Ventricle Internal Diameter Systole): 2.592 ± 0.132 mm
  LVPWD (Left Ventricle Posterior Wall Thickness Diastole): 0.521 ± 0.025 mm
  LVPWS (Left Ventricle Posterior Wall Thickness Systole): 0.643 ± 0.027 mm
[2]; MI at P7, Atpenin A5 100 μg/kg daily, 3 weeks post-MI
  cardiac function by echocardiography: restoration of cardiac function
[2]; [5]
  % EF (Ejection Fraction): 51.652 ± 3.984%
  % FS (Fractional Shortening): 25.773 ± 2.586%
  LV Mass (Left Ventricular Mass, Anatomical Weight): 42.822 ± 4.210 mg
  LV Vol; d (Left Ventricular Volume; diastole): 39.614 ± 7.039 µL
  LV Vol; s (Left Ventricular Volume; systole): 19.979 ± 4.374 µL
  LVAWD (Left Ventricle Anterior Wall Thickness Diastole): 0.493 ± 0.042 mm
  LVAWS (Left Ventricle Anterior Wall Thickness Systole): 0.615 ± 0.041 mm
  LVIDD (Left Ventricle Internal Diameter Diastole): 3.100 ± 0.229 mm
  LVIDS (Left Ventricle Internal Diameter Systole): 2.319 ± 0.221 mm
  LVPWD (Left Ventricle Posterior Wall Thickness Diastole): 0.536 ± 0.027 mm
  LVPWS (Left Ventricle Posterior Wall Thickness Systole): 0.648 ± 0.030 mm
[3]; [6]
  percentage of cardiomyocytes undergoing cytokinesis (Aurora B staining): significant increase
  percentage of cardiomyocytes undergoing mitosis (pH3 staining): significant increase
[3]; [7]
  myocardial regeneration (trichrome staining): myocardial thickness at the infarct zone
  scar size (trichrome staining, ImageJ): significant reduction in scar size

## COC1=C(OC)C(=O)C(CCCCCCCCCC[P+](c2ccccc2)(c2ccccc2)c2ccccc2)=C(C)C1=O [MitoQ]
[2]; MI at P7, MitoQ 10 mg/kg intraperitoneally daily for 2 weeks after birth, vs controls
  cardiac function by echocardiography (EF and FS): no improvement in cardiac function
[3]; MI at P7, MitoQ 10 mg/kg intraperitoneally daily for 2 weeks after birth, 7 days post-MI
  cardiomyocyte mitosis (pH3 immunostaining): significant increase in cardiomyocyte mitosis

— patent US11813239B2, “Compositions and methods for improving cardiac structure and/or function” (Wisconsin Alumni Research Foundation, priority 2020, dated 2023)
